Assay results from patent US10550097B2, “Selective 11-beta-hydroxysteroid dehydrogenase type 1 inhibitors” (DSM IP ASSETS B.V., priority 2015, dated 2020).

Columns and labels:
[1] = target: 11β-HSD1 (Homo sapiens, UniProt P28845); assay: 11β-HSD1 enzyme activity assay in cell lysates of transfected HEK-293 cells (HHH7 clone); assay type: biochemical; design: expressed in transfected cells; host or cells: HEK-293 (HHH7 clone), used as cell lysate; details: inhibitor 100 nM, 200 nM cortisone, 450 μM NADPH, 10 min
Procedure: Stably transfected human embryonic kidney (HEK-293) cells expressing 11β-HSD1 and hexose-6-phosphate dehydrogenase (the so called HHH7 clone) were cultivated for 48 h in Dulbecco's modified Eagle medium (DMEM) containing 4.5 g/L glucose, 10% fetal bovine serum, 100 U/mL penicillin, 0.1 mg/mL streptomycin, 1×MEM nonessential amino acids, and 10 mM HEPES buffer, pH 7.4. The cells were then washed with phosphate-buffered saline, and centrifuged for 4 min at 150×g. After removal of the supernatants, cell pellets were snap frozen on dry ice and stored at −80° C. until further use.
Cell lysates were incubated for 10 min at 37° C. in TS2 buffer (100 mM NaCl, 1 mM EGTA, 1 mM EDTA, 1 mM MgCl2, 250 mM sucrose, 20 mM Tris-HCl, pH 7.4) in a final volume of 22.2 μL containing either solvent (0.1% DMSO) or the inhibitor at the respective concentration as indicated in Table 4 (see below).
The steroids were separated by TLC, using methanol-chloroform (1:9) as solvent, followed by scintillation counting and calculation of substrate concentration. Data were collected from four independent measurements (standard deviation<10%).

[2] = tested on: Human skin from abdominal plastic surgery; assay: Ex vivo: total dermal collagen after cortisone and cortisone/inhibitor treatment; assay type: cell-based; details: day 6; for Dermal collagen: cortisone/inhibitor treatment, topical daily, untreated set to 100%
Procedure: Human skin from abdominal plastic surgery was used. The skin samples were cut in pieces of ˜8×3 mm (ø×thickness) and cultured up to day 6 in an air-liquid interface in a perforated ring of stainless steel in contact with a culture medium (modified Williams' E medium), while renewing the culture medium on day 3. Six skin specimens were used for each test sample. Each test sample (4 μl) was applied topically on top of each piece after cleaning of the surface with a cotton pad, which was subsequently covered with a 6 ø mm delivery membrane, this procedure was repeated daily. After 6 days skin sections were stained with Picrosirius Red histochemical staining, that dyes collagen fibers in purple-red. The papillary dermis was selected for the analysis. The different colors of the pictures were separated by using a deconvolution matrix. After deconvolution only pink-reddish images are used. Within these images the evaluation of dermal collagen was performed by estimating both color intensity and distribution with IMAGE J (NIH) analysis software. Two slides of each skin sample were processed by image acquisition and related analysis (i.e. 12 images for each treatment).

Sequence of 11β-HSD1 (P28845 whole entry): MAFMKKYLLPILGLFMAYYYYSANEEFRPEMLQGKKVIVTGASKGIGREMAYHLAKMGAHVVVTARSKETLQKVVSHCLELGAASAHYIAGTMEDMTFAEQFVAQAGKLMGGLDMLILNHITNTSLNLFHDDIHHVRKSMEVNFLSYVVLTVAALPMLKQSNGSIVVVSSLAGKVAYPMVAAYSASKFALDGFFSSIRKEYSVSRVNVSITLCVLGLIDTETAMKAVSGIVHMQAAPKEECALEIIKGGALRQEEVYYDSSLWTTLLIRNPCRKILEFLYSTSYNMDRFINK

Cc1ccc(-c2cccc(C(=O)N3CCCCCC3)c2)cn1 [IV-e, azepan-1-yl(3-(6-methylpyridin-3-yl)phenyl)methanone]
11β-HSD1 Remaining activity [% of control] [1]: 31 % of control
Dermal collagen ([2]; 10 μM in DMSO): 103%
Increase versus cortisone (#2) ([2]; 10 μM in DMSO): +34%
Dermal collagen ([2]; 100 μM in DMSO): 101%
Increase versus cortisone (#2) ([2]; 100 μM in DMSO): +31%
Dermal collagen ([2]; 200 μM in DMSO): 96%
Increase versus cortisone (#2) ([2]; 200 μM in DMSO): +25%
